In BindingDB's records for doi:10.7270/Q2Z899TZ (Columbia University Molecular Screening Center, 2007) one finds IC50 data, which are given here for six compounds.

The assay addresses T1, Tyrosine-protein phosphatase non-receptor type 22 (Homo sapiens, UniProt Q9Y2R2).
T1 sequence (Q9Y2R2 whole entry): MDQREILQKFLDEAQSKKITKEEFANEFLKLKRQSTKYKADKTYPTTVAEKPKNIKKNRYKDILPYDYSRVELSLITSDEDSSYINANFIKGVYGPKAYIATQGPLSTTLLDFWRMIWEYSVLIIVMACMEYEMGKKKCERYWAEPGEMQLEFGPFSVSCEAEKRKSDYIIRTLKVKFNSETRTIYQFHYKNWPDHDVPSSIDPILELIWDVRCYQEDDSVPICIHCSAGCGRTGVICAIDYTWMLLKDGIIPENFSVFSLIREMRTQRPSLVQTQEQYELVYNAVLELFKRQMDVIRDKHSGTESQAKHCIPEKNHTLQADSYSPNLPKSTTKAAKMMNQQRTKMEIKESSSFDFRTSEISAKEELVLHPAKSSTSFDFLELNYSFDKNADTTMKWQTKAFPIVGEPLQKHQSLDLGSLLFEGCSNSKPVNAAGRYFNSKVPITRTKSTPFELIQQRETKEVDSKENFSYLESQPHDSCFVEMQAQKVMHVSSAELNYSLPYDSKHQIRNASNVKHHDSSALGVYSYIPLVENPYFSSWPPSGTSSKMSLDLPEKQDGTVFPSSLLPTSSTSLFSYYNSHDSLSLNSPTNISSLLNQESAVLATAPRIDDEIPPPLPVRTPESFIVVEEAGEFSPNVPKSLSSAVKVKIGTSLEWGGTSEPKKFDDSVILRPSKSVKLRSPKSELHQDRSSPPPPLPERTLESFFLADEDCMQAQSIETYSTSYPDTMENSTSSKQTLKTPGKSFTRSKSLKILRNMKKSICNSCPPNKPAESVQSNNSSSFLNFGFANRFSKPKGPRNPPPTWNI
The assay can be described thus: LYP phosphatase inhibitors, primary screen, biochemical, DiFMUP fluorescence, recombinant catalytic domain, 10 µM (AID 606).
In the case of `CCCCC[C@H](O)C=C[C@H]1C=CC(=O)[C@@H]1C/C=C\CCCC(=O)O` [(Z)-7-[(1R,5S)-2-oxidanylidene-5-[(E,3S)-3-oxidanyloct-1-enyl]cyclopent-3-en-1-yl]hept-5-enoic acid], the IC50 (in general, the concentration that inhibits the measured activity by half) stood at 6.69 µM.
For the compound `Cc1ccc2c(c1C)NC(C(=O)O)C1CC=CC21` (stereo unspecified), the IC50 worked out at 0.94 µM.
Next, `O=C1C=Cc2ccccc2/C1=C/NC12CN3CCN(CN(C3)C1)C2` [MLS000071484]: more than 40 µM; `COc1ccc(Cn2c(C)nc3c(c2=O)c2nc4ccccc4nc2n3Cc2ccco2)cc1` [MLS000079944]: 1.78 µM.
On to `CCn1nc(-c2ccccc2)nc2c(=O)n(C)c(=O)nc1-2` [1-Ethyl-6-methyl-3-phenyl-1H-pyrimido[5,4-e][1,2,4]triazine-5,7-dione], for which the IC50 stood at 1.66 µM.
The result for `CC(C)Cn1c(N)c(C(=O)COC(=O)c2cc(-c3ccco3)nc3ccccc23)c(=O)n(C)c1=O` [2-(2-furanyl)-4-quinolinecarboxylic acid [2-[4-amino-1-methyl-3-(2-methylpropyl)-2,6-dioxo-5-pyrimidinyl]-2-oxoethyl] ester] reads 5.81 µM.
